Assay results: patent US11154529B2, “Phosphaplatin liquid formulations” (Phosplatin Therapeutics Inc., priority 2016, dated 2021)

Assay: Ready-to-use formulation stability at −20° C., 5 mg/mL (R,R)-pyrodach-2 in 10 mM Bicarbonate Buffer at pH 8.6, 10 mL vials
Type: physicochemical

Compound: O=P1(O)OP(=O)(O)[O][Pt]2([NH][C@@H]3CCCC[C@H]3[NH]2)[O]1 (stereo partly drawn) [(R,R)-pyrodach-2, (R,R)-trans-1,2-cyclohexanediamine-(dihydrogenpyrophosphato)platinum(II)]
- Potency (Assay) (1 month): 97.5%
- Purity (% Area) (1 month): 97.08%
- Unknown Impurities RRT~0.29 (1 month): 0.16%
- Unknown Impurities RRT~0.41 (1 month): 0.07%
- Unknown Impurities RRT~0.44 (1 month): 0.09%
- Unknown Impurities RRT~0.49 (1 month): 0.94%
- Unknown Impurities RRT~0.59 (1 month): 0.09%
- Unknown Impurities RRT~0.62 (1 month): 0.12%
- Unknown Impurities RRT~0.73 (1 month): 1.12%
- Unknown Impurities RRT~1.69 (1 month): ND (ND = Not Detected, or <0.05%)
- Unknown Impurities RRT~2.96 (1 month): ND (ND = Not Detected, or <0.05%)
- Unknown Impurities RRT~3.02 (1 month): ND (ND = Not Detected, or <0.05%)
- Unknown Impurities RRT~3.12 (1 month): 0.05%
- Unknown Impurities RRT~3.24 (1 month): ND (ND = Not Detected, or <0.05%)
- Unknown Impurities RRT~3.30 (1 month): 0.05%
- Unknown Impurities RRT~3.33 (1 month): 0.06%
- Unknown Impurities RRT~3.70 (1 month): ND (ND = Not Detected, or <0.05%)
- Unknown Impurities RRT~4.02 (1 month): 0.08%
- pH (1 month): 8.77
- Potency (Assay) (6 month): 98.4%
- Purity (% Area) (6 month): 96.36%
- Unknown Impurities RRT~0.29 (6 month): 0.23%
- Unknown Impurities RRT~0.41 (6 month): 0.45%
- Unknown Impurities RRT~0.44 (6 month): ND (ND = Not Detected, or <0.05%)
- Unknown Impurities RRT~0.49 (6 month): 1.41%
- Unknown Impurities RRT~0.59 (6 month): 0.15%
- Unknown Impurities RRT~0.62 (6 month): ND (ND = Not Detected, or <0.05%)
- Unknown Impurities RRT~0.73 (6 month): 0.84%
- Unknown Impurities RRT~1.69 (6 month): 0.22%
- Unknown Impurities RRT~2.96 (6 month): ND (ND = Not Detected, or <0.05%)
- Unknown Impurities RRT~3.02 (6 month): ND (ND = Not Detected, or <0.05%)
- Unknown Impurities RRT~3.12 (6 month): 0.08%
- Unknown Impurities RRT~3.24 (6 month): ND (ND = Not Detected, or <0.05%)
- Unknown Impurities RRT~3.30 (6 month): 0.06%
- Unknown Impurities RRT~3.33 (6 month): 0.05%
- Unknown Impurities RRT~3.70 (6 month): ND (ND = Not Detected, or <0.05%)
- Unknown Impurities RRT~4.02 (6 month): 0.09%
- pH (6 month): 8.72
- Potency (Assay) (12 month): 86.1%
- Purity (% Area) (12 month): 90.94%
- Unknown Impurities RRT~0.29 (12 month): 0.13%
- Unknown Impurities RRT~0.41 (12 month): 5.26%
- Unknown Impurities RRT~0.44 (12 month): ND (ND = Not Detected, or <0.05%)
- Unknown Impurities RRT~0.49 (12 month): 1.19%
- Unknown Impurities RRT~0.59 (12 month): 0.27%
- Unknown Impurities RRT~0.62 (12 month): 0.43%
- Unknown Impurities RRT~0.73 (12 month): 0.88%
- Unknown Impurities RRT~1.69 (12 month): 0.25%
- Unknown Impurities RRT~2.96 (12 month): 0.08%
- Unknown Impurities RRT~3.02 (12 month): 0.09%
- Unknown Impurities RRT~3.12 (12 month): 0.05%
- Unknown Impurities RRT~3.24 (12 month): 0.06%
- Unknown Impurities RRT~3.30 (12 month): 0.13%
- Unknown Impurities RRT~3.33 (12 month): 0.06%
- Unknown Impurities RRT~3.70 (12 month): 0.09%
- Unknown Impurities RRT~4.02 (12 month): 0.14%
- pH (12 month): 8.83
- Potency (Assay) (Initial): 100.3%
- Purity (% Area) (Initial): 98.04%
- Unknown Impurities RRT~0.29 (Initial): 0.11%
- Unknown Impurities RRT~0.41 (Initial): ND (ND = Not Detected, or <0.05%)
- Unknown Impurities RRT~0.44 (Initial): ND (ND = Not Detected, or <0.05%)
- Unknown Impurities RRT~0.49 (Initial): 0.62%
- Unknown Impurities RRT~0.59 (Initial): ND (ND = Not Detected, or <0.05%)
- Unknown Impurities RRT~0.62 (Initial): ND (ND = Not Detected, or <0.05%)
- Unknown Impurities RRT~0.73 (Initial): 1.05%
- Unknown Impurities RRT~1.69 (Initial): ND (ND = Not Detected, or <0.05%)
- Unknown Impurities RRT~2.96 (Initial): ND (ND = Not Detected, or <0.05%)
- Unknown Impurities RRT~3.02 (Initial): ND (ND = Not Detected, or <0.05%)
- Unknown Impurities RRT~3.12 (Initial): ND (ND = Not Detected, or <0.05%)
- Unknown Impurities RRT~3.24 (Initial): ND (ND = Not Detected, or <0.05%)
- Unknown Impurities RRT~3.30 (Initial): ND (ND = Not Detected, or <0.05%)
- Unknown Impurities RRT~3.33 (Initial): ND (ND = Not Detected, or <0.05%)
- Unknown Impurities RRT~3.70 (Initial): ND (ND = Not Detected, or <0.05%)
- Unknown Impurities RRT~4.02 (Initial): ND (ND = Not Detected, or <0.05%)
- pH (Initial): 8.60
